Source: PubChem BioAssay AID1963867 (Molecular Pharmacology Branch, DTP, NCI, 2024)

Test system: KRAS-mutant PDC tumor spheroid with HUVEC/MSC, viability
Test: Anticancer human tumor 327498-153-R-J2-PDC patient-derived uterine carcinosarcoma cell line growth inhibition [KRAS2]
Conditions: for IC50: curve of first compound; for viability, T/C: stronger effect = lower value
How it was run: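 KRAS-mutant tumor cells were grown as spheroids with HUVEC endothelial cells and human MSCs as stroma. Targeted agents were tested alone and with KRAS pathway inhibitors. Doses started at or near clinical Cmax, or 10 microM, descending half-log.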

[1] = second compound 0.0316 µM, first compound 0.01 µM
[2] = second compound 0.0316 µM, first compound 0.0316 µM
[3] = second compound 0.0316 µM, first compound 0.1 µM
[4] = second compound 0.0316 µM, first compound 0.316 µM
[5] = second compound 0.0316 µM, first compound 1 µM
[6] = second compound 0.0316 µM, first compound 3.16 µM
[7] = second compound 0.1 µM, first compound 0.01 µM
[8] = second compound 0.1 µM, first compound 0.0316 µM
[9] = second compound 0.1 µM, first compound 0.1 µM
[10] = second compound 0.1 µM, first compound 0.316 µM
[11] = second compound 0.1 µM, first compound 1 µM
[12] = second compound 0.1 µM, first compound 3.16 µM
[13] = second compound 0.316 µM, first compound 0.01 µM
[14] = second compound 0.316 µM, first compound 0.0316 µM
[15] = second compound 0.316 µM, first compound 0.1 µM
[16] = second compound 0.316 µM, first compound 0.316 µM
[17] = second compound 0.316 µM, first compound 1 µM
[18] = second compound 0.316 µM, first compound 3.16 µM
[19] = second compound 1 µM, first compound 0.01 µM
[20] = second compound 1 µM, first compound 0.0316 µM
[21] = second compound 1 µM, first compound 0.1 µM
[22] = second compound 1 µM, first compound 0.316 µM
[23] = second compound 1 µM, first compound 1 µM
[24] = second compound 1 µM, first compound 3.16 µM
[25] = second compound 3.16 µM, first compound 0.01 µM
[26] = second compound 3.16 µM, first compound 0.0316 µM
[27] = second compound 3.16 µM, first compound 0.1 µM
[28] = second compound 3.16 µM, first compound 0.316 µM
[29] = second compound 3.16 µM, first compound 1 µM
[30] = second compound 3.16 µM, first compound 3.16 µM
[31] = second compound 0.0316 µM, first compound 10 µM
[32] = second compound 0.1 µM, first compound 10 µM
[33] = second compound 0.316 µM, first compound 10 µM
[34] = second compound 1 µM, first compound 10 µM
[35] = second compound 3.16 µM, first compound 10 µM
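Also: spheroids exposed to agents for seven days before reading.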
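For viability, T/C in this document: 100% = DMSO vehicle wells so lower means fewer viable cells.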

SMILES	IC50 (second compound 0.0316 µM)	IC50 (second compound 0.1 µM)	IC50 (second compound 1 µM)	IC50 (second compound 3.16 µM)	viability, T/C [2]	viability, T/C [3]	viability, T/C [4]	viability, T/C [5]	viability, T/C [8]	viability, T/C [9]	viability, T/C [10]	viability, T/C [11]	viability, T/C [20]	viability, T/C [21]	viability, T/C [22]	viability, T/C [23]	viability, T/C [26]	viability, T/C [27]	viability, T/C [28]	viability, T/C [29]	other results
CC1COCCN1c1cc(-c2ccnn2C)c2ccnc(-c3ccn[nH]3)c2n1 (stereo not drawn) + C=CC(=O)N1CCN(c2nc(OCC3CCCN3C)nc3c2CCN(c2cccc4cccc(C)c24)C3)CC1CC#N	12.5 nM	10 nM	< 10 nM	< 10 nM	26.6%	8.55%	6.25%	6.05%	21%	9.02%	5.92%	6.34%	14.6%	3.87%	3.63%	4.58%	0.63%	0.14%	0.14%	0.29%	IC50 (second compound 0.316 µM): < 10 nM; viability, T/C [1]: 55.6%; viability, T/C [6]: 5.16%; viability, T/C [7]: 50.2%; viability, T/C [12]: 5.2%; viability, T/C [13]: 35.1%; viability, T/C [14]: 21.6%; viability, T/C [15]: 7.42%; viability, T/C [16]: 4.41%; viability, T/C [17]: 4.61%; viability, T/C [18]: 4.35%; viability, T/C [19]: 29.9%; viability, T/C [24]: 3.92%; viability, T/C [25]: 0.17%; viability, T/C [30]: 0.22%
CC1OCC2(CCN(c3cnc(Sc4ccnc(N)c4Cl)c(N)n3)CC2)C1N (stereo not drawn) + C=CC(=O)N1CCN(c2nc(OCC3CCCN3C)nc3c2CCN(c2cccc4cccc(C)c24)C3)CC1CC#N	< 31.6 nM	< 31.6 nM	< 31.6 nM	< 31.6 nM	44%	40.3%	23.9%	22.6%	41.2%	32.9%	24.9%	21.2%	33%	24.2%	23.1%	19.3%	0.14%	0.15%	0.14%	0.13%	IC50 (second compound 0.316 µM): < 31.6 nM; viability, T/C [6]: 19.6%; viability, T/C [31]: 14.9%; viability, T/C [12]: 16.2%; viability, T/C [32]: 16.4%; viability, T/C [14]: 40.6%; viability, T/C [15]: 30.9%; viability, T/C [16]: 24.4%; viability, T/C [17]: 20.4%; viability, T/C [18]: 16.4%; viability, T/C [33]: 15.3%; viability, T/C [24]: 14.3%; viability, T/C [34]: 13.5%; viability, T/C [30]: 0.15%; viability, T/C [35]: 0.24%
CCN1CCN(Cc2ccc(Nc3ncc(F)c(-c4cc(F)c5nc(C)n(C(C)C)c5c4)n3)nc2)CC1 + C=CC(=O)N1CCN(c2nc(OCC3CCCN3C)nc3c2CCN(c2cccc4cccc(C)c24)C3)CC1CC#N	< 3.16 nM	< 3.16 nM	< 3.16 nM	< 3.16 nM	33.4%	35.2%	34.5%	40.4%	28.2%	34.2%	33.7%	36.4%	21.1%	19.3%	23.5%	13.5%	0.46%	0.84%	0.58%	0.24%	IC50 (second compound 0.316 µM): < 3.16 nM; viability, T/C (second compound 0.0316 µM, first compound 0.00316 µM): 55.9%; viability, T/C [1]: 46.6%; viability, T/C (second compound 0.1 µM, first compound 0.00316 µM): 49.1%; viability, T/C [7]: 35.4%; viability, T/C (second compound 0.316 µM, first compound 0.00316 µM): 40.5%; viability, T/C [13]: 33.1%; viability, T/C [14]: 30.1%; viability, T/C [15]: 24%; viability, T/C [16]: 33.3%; viability, T/C [17]: 37.9%; viability, T/C (second compound 1 µM, first compound 0.00316 µM): 31.1%; viability, T/C [19]: 23.1%; viability, T/C (second compound 3.16 µM, first compound 0.00316 µM): 1.79%; viability, T/C [25]: 0.22%
CCNC(=O)CC1N=C(c2ccc(Cl)cc2)c2cc(OC)ccc2-n2c(C)nnc21 (stereo not drawn) + C=CC(=O)N1CCN(c2nc(OCC3CCCN3C)nc3c2CCN(c2cccc4cccc(C)c24)C3)CC1CC#N	657 nM	218 nM	< 31.6 nM	< 31.6 nM	72.8%	75.9%	51.8%	47.1%	55.9%	58.4%	46.2%	36.9%	48.8%	41.7%	36.4%	27.9%	1.66%	2.31%	1.02%	0.22%	viability, T/C [6]: 36.5%; viability, T/C [31]: 27%; viability, T/C [12]: 31.9%; viability, T/C [32]: 22.4%; viability, T/C [24]: 25.1%; viability, T/C [34]: 18.9%; viability, T/C [30]: 2.19%; viability, T/C [35]: 0.39%
Cn1nccc1Nc1nccc(-c2cc3c(s2)C(C)(C)N(CCN2CCOCC2)C3=O)n1 + C=CC(=O)N1CCN(c2nc(OCC3CCCN3C)nc3c2CCN(c2cccc4cccc(C)c24)C3)CC1CC#N	422 nM	227 nM	< 31.6 nM	< 31.6 nM	62.5%	54.6%	55.6%	25.2%	60.2%	62.1%	45.5%	33%	39.6%	31.1%	29.7%	33.3%	0.15%	0.17%	0.15%	0.16%	IC50 (second compound 0.316 µM): < 31.6 nM; viability, T/C [6]: 40.4%; viability, T/C [31]: 34.7%; viability, T/C [12]: 36.2%; viability, T/C [32]: 28.8%; viability, T/C [14]: 42.9%; viability, T/C [15]: 45%; viability, T/C [16]: 37.6%; viability, T/C [17]: 33.6%; viability, T/C [18]: 31.1%; viability, T/C [33]: 27.6%; viability, T/C [24]: 30.3%; viability, T/C [34]: 21.3%; viability, T/C [30]: 0.54%; viability, T/C [35]: 0.21%
